Experimental data: patent US11014913B2, “Pyridazinones as PARP7 inhibitors” (Ribon Therapeutics Inc., priority 2018, dated 2021)
pIC50: −log10 of the molar value.

Experiments:
PARP7 [1] = target: T1, PARP7 (Homo sapiens (Human), UniProt Q7Z3E1); test: Enzymatic assay for inhibition of PARP7 (TR-FRET displacement of Probe A from the TIPARP active site); assay type: binding
Protocol: 20 nL of a dose response curve of each test compound was spotted in black 384-well polystyrene proxiplates (Perkin Elmer) using a Mosquito (TTP Labtech). […] Reactions were incubated at 25° C. for an additional 30 min, then read on an Envision platereader equipped with a LANCE/DELFIA top mirror (Perkin Elmer) using excitation of 320 nm and emission of 615 nm and […] with a 90 μs delay. The ratio of the 665/615 nm emission were calculated for each well to determine the amount of complex of TIPARP and Probe A in each well. […] The Hill Coefficient is normally allowed to float but may also be fixed at 1 in a 3-parameter fit. Y is the % inhibition and X is the compound concentration.

PARP7 [2] = target: T1, PARP7; test: PARP7 inhibition potency (Table A-1); assay type: biochemical; settings: comparison of separated isomers; see Table A-1
4T1-luc2-1A4 cells = test: Tumor growth in murine syngeneic model 4T1 (orthotopic, mammary fat pad); assay type: in vivo; settings: 4T1, BALB/c mice
Description: (§1) Example G: Inhibition of Tumor Growth by Treatment with PARP7 Inhibitors
For the 4T1 study female BALB/c mice were inoculated orthotopically in the mammary fat pad with 4T1-luc2-1A4 cells for tumor development. Eight days after tumor inoculation, 45 mice with tumor size ranging from 63-88 mm^3 (average tumor size 67 mm^3) were selected and assigned into 3 groups using stratified randomization with 15 mice in each group based upon their tumor volumes. The treatments were started from the next day post randomization (defined randomization day as D0) and were treated with vehicle (0.5% methylcellulose +0.2% Tween 80), Compound 98 (500 mg/kg S.C. QD*21 days), Compound 93A (100 mg/kg S.C. BID*21 days) respectively. The tumor sizes were measured three times per week during the treatment. The entire study was terminated on D20.
(§2) Mean tumor volume and SEM for both studies are plotted. Statistical significance, calculated using two-tailed unpaired t-tests in which each treatment group was compared to vehicle control, is indicated by an asterisk. Statistics were performed on groups with less than 20% animal loss (D21 for CT26, D17 for 4T1).

CT26 cells [3] = test: Tumor growth in murine syngeneic model CT26 (subcutaneous dosing); assay type: in vivo; settings: CT26, BALB/c mice
Description: as §1
For the CT26 study BALB/c mice were inoculated subcutaneously at the right flank with CT26 cells for tumor development. Four days after tumor inoculation, 36 mice with tumor size ranging from 40-55 mm^3 (average tumor size 47 mm^3) were selected and assigned into 3 groups using stratified randomization with 12 mice in each group based upon their tumor volumes. The treatments were started from the next day post randomization (defined randomization day as day 0) and were treated with vehicle (0.5% methylcellulose +0.2% Tween 80), Compound 98 (500 mg/kg S.C. QD*21 days), Compound 93A (100 mg/kg S.C. BID*21 days) respectively. The tumor sizes were measured three times per week during the treatment. The entire study was terminated on day 21.
as §2

CT26 cells [4] = test: Tumor growth in murine CT26 colon cancer syngeneic model (oral dosing); assay type: in vivo; settings: CT26, BALB/c mice, BID 125-500 mg/kg or QD 500 mg/kg, 21 days
Description: (§3) Example H: Inhibition of Tumor Growth by Oral Dosing with a PARP7 Inhibitor
(§4) The effect of Compound 561 on tumor growth was studied in a human NCI-H1373 lung cancer xenograft and a murine CT26 colon cancer syngeneic model.
For the CT26 study, BALB/c mice were inoculated subcutaneously in the right flank with CT26 cells for tumor development. After 5 days of cell inoculation, mice with 36-79 mm^3 tumors were randomized into treatment groups with mean tumor volumes of 54 mm^3. The treatments were started from the next day post randomization (defined randomization day as day 0) and were treated with vehicle (25 or 50% Labrasol) or Compound 561 BID (2 times a day every 12 hours) at doses ranging from 125-500 mg/kg or QD (once a day) at 500 mg/kg for 21 days by oral gavage or needle subcutaneously. Tumor volumes were determined by manual calipers every 2-3 days. Mean tumor volume and SEM are plotted. BID: twice a day; PO: per oral administration; QD: once a day; SC: per subcutaneous administration. The first two doses for vehicle and Compound 561 500 mg/kg in the QD groups were delivered by subcutaneous injection. […] Statistical significance is calculated using two-way ANOVA followed by Bonferroni post-tests in which the treatment groups were compared to vehicle control (**** P<0.0001).

NCI-H1373 cells = test: Tumor growth in human NCI-H1373 lung cancer xenograft (oral dosing); assay type: in vivo, SCID mice; settings: 62.5 to 500 mg/kg once a day for 28 days
Description: as §3, §4
For the NCI-H1373 study, SCID mice were inoculated subcutaneously in the right flank with NCI-H1373 cells for tumor development. After 5 days of tumor growth, mice with 89-148 mm^3 tumors were randomized into treatment groups with mean tumor volumes of 121 mm^3. The treatments were started from the next day post randomization (defined randomization day as day 0) and were treated with vehicle (50% Labrasol) or Compound 561 (62.5, 125, 250, and 500 mg/kg) once a day for 28 days by oral gavage. Tumor volumes were determined by manual calipers every 2-3 days. Mean tumor volume and SEM are plotted. QD: once a day; PO: per oral administration. Statistical significance is calculated using two-way ANOVA followed by Bonferroni post-tests in which the treatment groups were compared to vehicle control (**** P<0.0001).

T1 sequence (Q7Z3E1 whole entry): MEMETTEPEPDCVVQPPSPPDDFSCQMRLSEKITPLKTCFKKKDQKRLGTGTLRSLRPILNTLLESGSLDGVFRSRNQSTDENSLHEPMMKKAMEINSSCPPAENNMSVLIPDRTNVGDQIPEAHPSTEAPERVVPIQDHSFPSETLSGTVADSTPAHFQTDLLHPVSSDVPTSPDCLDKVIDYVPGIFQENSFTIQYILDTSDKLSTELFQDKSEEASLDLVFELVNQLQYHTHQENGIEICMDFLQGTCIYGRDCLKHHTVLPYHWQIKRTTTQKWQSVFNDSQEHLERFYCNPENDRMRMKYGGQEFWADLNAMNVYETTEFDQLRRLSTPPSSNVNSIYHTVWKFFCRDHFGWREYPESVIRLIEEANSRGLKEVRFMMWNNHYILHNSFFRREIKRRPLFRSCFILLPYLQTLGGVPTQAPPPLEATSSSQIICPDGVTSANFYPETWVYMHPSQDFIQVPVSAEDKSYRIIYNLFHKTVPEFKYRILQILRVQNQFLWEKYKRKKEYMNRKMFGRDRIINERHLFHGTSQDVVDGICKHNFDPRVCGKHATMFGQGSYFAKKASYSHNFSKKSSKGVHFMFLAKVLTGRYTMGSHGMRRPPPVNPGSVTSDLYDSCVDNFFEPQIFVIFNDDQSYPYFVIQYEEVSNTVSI

Question: With “5-[(2R)-2-[3-[4-(5-chloropyrimidin-2-yl)piperazin-1-yl]-3-oxopropoxy]-3-methoxypropoxy]-4-(trifluoromethyl)-2,3-dihydropyridazin-3-one [Example 560 Isomer B]” as the compound, how does the pIC50 (PARP7 [1]) read?
Answer: 6.00 to 7.00

Question: How did the pIC50 (PARP7 [1]) turn out when “5-[[(2R)-1-[3-[4-(5-chloropyrimidin-2-yl)piperazin-1-yl]-3-oxopropoxy]-3-methoxypropan-2-yl]oxy]-4-(trifluoromethyl)-2,3-dihydropyridazin-3-one [Example 560 Isomer D]” was run?
Answer: 6.00 to 7.00

Question: With “5-[[(2S)-1-[3-[4-(5-chloropyrimidin-2-yl)piperazin-1-yl]-3-oxopropoxy]-3-methoxypropan-2-yl]oxy]-4-(trifluoromethyl)-2,3-dihydropyridazin-3-one [Example 560 Isomer C]” as the compound, how does the pIC50 (PARP7 [1]) read?
Answer: > 7.00

Question: With `N#Cc1ccc(N2CCN(C(=O)c3cccc(OC[C@@H]4c5ccccc5CN4c4cn[nH]c(=O)c4C(F)(F)F)c3)CC2)nc1` (single isomer, unassigned) [Example 18 Isomer B] as the compound, how does the “relative potency of the enantiomers” value (PARP7 [2]) read?
Answer: more potent enantiomer

Question: Which tumor growth (4T1-luc2-1A4 cells; 100 mg/kg S.C. BID*21 days) does the source give for `N#Cc1ccc(N2CCN(C(=O)CCOC[C@@H]3c4ccccc4CN3c3cn[nH]c(=O)c3C(F)(F)F)CC2)nc1` [Example 93A, 6-[4-(3-[[(1S)-2-[6-oxo-5-(trifluoromethyl)-1,6-dihydropyridazin-4-yl]-2,3-dihydro-1H-isoindol-1-yl]methoxy]propanoyl)piperazin-1-yl]pyridine-3-carbonitrile] here?
Answer: significantly reduce tumor growth

Question: And the tumor growth (CT26 cells [3]; 100 mg/kg S.C. BID*21 days)?
Answer: significantly reduce tumor growth

Question: For `N#Cc1ccc(N2CCN(C(=O)CCOC[C@@H]3CCCN3c3cn[nH]c(=O)c3C(F)(F)F)CC2)nc1` [Example 98, 6-[4-(3-[[(2S)-1-[6-Oxo-5-(trifluoromethyl)-1,6-dihydropyridazin-4-yl]pyrrolidin-2-yl]methoxy]propanoyl)piperazin-1-yl]pyridine-3-carbonitrile], which tumor growth (4T1-luc2-1A4 cells; 500 mg/kg S.C. QD*21 days) is on record?
Answer: significantly reduce tumor growth

Question: What about the tumor growth (CT26 cells [3]; 500 mg/kg S.C. QD*21 days) of the same compound?
Answer: significantly reduce tumor growth

Question: How did the pIC50 (PARP7 [1]) turn out when `N#Cc1ccc(N2CCN(C(=O)CNCC[C@@H]3c4ccccc4CN3c3cn[nH]c(=O)c3C(F)(F)F)CC2)nc1` [Example 144B, 6-[4-[2-([2-[(1R)-2-[6-oxo-5-(trifluoromethyl)-1,6-dihydropyridazin-4-yl]-2,3-dihydro-1H-isoindol-1-yl]ethyl]amino)acetyl]piperazin-1-yl]pyridine-3-carbonitrile] was run?
Answer: 6.00 to 7.00

Question: Which tumor growth (CT26 cells [4]) does the source give for `C[C@@H](COCCC(=O)N1CCN(c2ncc(C(F)(F)F)cn2)CC1)Nc1cn[nH]c(=O)c1C(F)(F)F` [Example 561, 5-[[(2S)-1-(3-oxo-3-[4-[5-(trifluoromethyl)pyrimidin-2-yl]piperazin-1-yl]propoxy)propan-2-yl]amino]-4-(trifluoromethyl)-2,3-dihydropyridazin-3-one] here?
Answer: significantly reduces tumor growth

Question: What about the tumor regression (NCI-H1373 cells) of the same compound?
Answer: complete tumor regression at all dose levels
